*1 amine or outer side, *2 acyl side, *3 side chain or, on linkers, in order; H or OH if unused. Where a SMILES comes first, the peptide text is derived from it. Bridges are numbered along the chain shown (N, C = ends). [ ]: non-standard residue; d: D form. The star is where a group is joined. Trp(1-CH2CO) = O=C([C@H](Cc1cn(CC(=O)[*:3])c2ccccc12)N[*:1])[*:2]; Dodecyloxycarbonyl = CCCCCCCCCCCCOC(=O)*; X4 = CCc1cccc(CC)c1-c1nc(*)c2ccccc2n1; Fmoc = O=C(OCC1c2ccccc2-c2ccccc21)*; Oleoyl = CCCCCCCC/C=C\CCCCCCCC(=O)*; X2 = COc1ccc2nc(-c3ccccc3)nc(*)c2c1; Hyp = O=C(O)[C@@H]1C[C@@H](O)CN1; X1 = COC(=O)c1ccc2cnc(*)nc2c1; NMeNle = CCCC[C@H](NC)C(=O)O; X6 = CCCCCCCCCCCCCCCCOC(=O)*; NMeA = CN[C@@H](C)C(=O)O; X3 = Brc1ccc2ncnc(*)c2c1; Dab = NCC[C@H](N)C(=O)O; Dap = NC[C@H](N)C(=O)O; X5 = CC(C)(C)SC(=O)*

T1 sequence (Q9NZQ7 18-239): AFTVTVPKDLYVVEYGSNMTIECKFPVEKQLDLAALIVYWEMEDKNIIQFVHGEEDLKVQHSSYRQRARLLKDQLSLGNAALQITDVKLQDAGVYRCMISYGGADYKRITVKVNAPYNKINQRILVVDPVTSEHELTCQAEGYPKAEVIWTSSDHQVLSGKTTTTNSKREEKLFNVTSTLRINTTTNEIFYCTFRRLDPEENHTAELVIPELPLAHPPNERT

The assay addresses T1, PD-1/PD-L1 (Homo sapiens, UniProt Q9NZQ7).
T1 construct: TVMV protease site linker (C); made in house; host or cells: HEK293T cells
The experiment in a line: PD-1/PD-L1 Homogenous Time-Resolved Fluorescence (HTRF) binding assay. Particulars: PD-L1-His 10 nM, PD-1-Ig 20 nM; soluble extracellular domains. From the text:
Methods for Testing the Ability of Macrocyclic Peptides to Compete for the Binding of Pd-1 to Pd-L1 Using Homogenous Time-Resolved Fluorescence (Htrf) Binding Assays
The ability of the compounds of formula (I) to bind to PD-L1 was investigated using a PD-1/PD-L1 Homogenous Time-Resolved Fluorescence (HTRF) binding assay.
The interaction of PD-1 and PD-L1 can be assessed using soluble, purified preparations of the extracellular domains of the two proteins. The PD-1 and PD-L1 protein extracellular domains were expressed as fusion proteins with detection tags, for PD-1, the tag was the Fc portion of Immunoglobulin (PD-1-Ig) and for PD-L1 it was the 6 histidine motif (PD-L1-His). All binding studies were performed in an HTRF assay buffer consisting of dPBS supplemented with 0.1% […] bovine serum albumin and 0.05% (v/v) Tween-20. For the h/PD-L1-His binding assay, inhibitors were pre-incubated with PD-L1-His (10 nM final) for 15 m in 4 μl of assay buffer, followed by addition of PD-1-Ig (20 nM final) in 1 μl of assay buffer and further incubation for 15 m. HTRF detection was achieved using europium crypate-labeled anti-Ig (1 nM final) and allophycocyanin (APC) labeled anti-His (20 nM final). Antibodies were diluted in HTRF detection buffer and 5 μl was dispensed on top of the binding reaction. The reaction mixture was allowed to equilibrate for 30 minutes and the resulting signal (665 nm/620 nm ratio) was obtained using an EnVision fluorometer. Additional binding assays were established between the human proteins PD-1-Ig/PD-L2-His (20 & 5 nM, respectively) and CD80-His/PD-L1-Ig (100 & 10 nM, respectively).
Recombinant Proteins: Human PD-1 (25-167) with a C-terminal human Fc domain of immunoglobulin G (Ig) epitope tag [hPD-1(25-167)-3S-IG] and human PD-L1 (18-239) with a C-terminal His epitope tag [hPD-L1(18-239)-TVMV-His] were expressed in HEK293T cells and purified sequentially by Protein A affinity chromatography and size exclusion chromatography. Human PD-L2-His and CD80-His was obtained through commercial sources.
Table 1 lists the IC50 values for representative examples of this disclosure measured in the PD-1/PD-L1 Homogenous Time-Resolved Fluorescence (HTRF) binding assay.
A general note: TR-FRET usually uses a lanthanide donor and a delayed reading to cut background.
A word on the IC50: it is the point on the concentration scale where inhibition reaches its midpoint. The low end stands for greater potency in that assay, the high end for weaker potency in that assay. For `CCCCCCCCCCCCOC(=O)NC[C@@H]1NC(=O)[C@@H]2CCCN2C(=O)[C@H](CC(N)=O)NC(=O)[C@H](C)N(C)C(=O)[C@H](Cc2ccc(O)cc2)NC(=O)CSC[C@@H](C(=O)NCC(N)=O)NC(=O)[C@H](CC(C)C)NC(=O)[C@H](CCCC)N(C)C(=O)[C@H](CCCC)N(C)C(=O)[C@@H]2Cc3cn(c4ccccc34)CC(=O)NCC[C@H](NC(=O)[C@H](Cc3c[nH]c4ccccc34)NC(=O)[C@@H]3C[C@@H](O)CN3C(=O)[C@H](CC(C)C)NC1=O)C(=O)N2` [Example 1001] ({CH2CO}-Y[NMeA]NP[Dap](Dodecyloxycarbonyl)L[Hyp]W[Dab][Trp(1-CH2CO)][NMeNle][NMeNle]LCG-NH2; lactam 9-10; thioether N-14), the IC50 was determined as 280 nM.
`CCCCCCCCCCCCCCCCOC(=O)NC[C@@H]1NC(=O)[C@@H]2CCCN2C(=O)[C@H](CC(N)=O)NC(=O)[C@H](C)N(C)C(=O)[C@H](Cc2ccc(O)cc2)NC(=O)CSC[C@@H](C(=O)NCC(N)=O)NC(=O)[C@H](CC(C)C)NC(=O)[C@H](CCCC)N(C)C(=O)[C@H](CCCC)N(C)C(=O)[C@@H]2Cc3cn(c4ccccc34)CC(=O)NCC[C@H](NC(=O)[C@H](Cc3c[nH]c4ccccc34)NC(=O)[C@@H]3C[C@@H](O)CN3C(=O)[C@H](CC(C)C)NC1=O)C(=O)N2` [Example 1002] ({CH2CO}-Y[NMeA]NP[Dap](X6)L[Hyp]W[Dab][Trp(1-CH2CO)][NMeNle][NMeNle]LCG-NH2; lactam 9-10; thioether N-14) returned an IC50 of 2200 nM.
In the case of `CCCCCCCC/C=C\CCCCCCCC(=O)NC[C@@H]1NC(=O)[C@@H]2CCCN2C(=O)[C@H](CC(N)=O)NC(=O)[C@H](C)N(C)C(=O)[C@H](Cc2ccc(O)cc2)NC(=O)CSC[C@@H](C(=O)NCC(N)=O)NC(=O)[C@H](CC(C)C)NC(=O)[C@H](CCCC)N(C)C(=O)[C@H](CCCC)N(C)C(=O)[C@@H]2Cc3cn(c4ccccc34)CC(=O)NCC[C@H](NC(=O)[C@H](Cc3c[nH]c4ccccc34)NC(=O)[C@@H]3C[C@@H](O)CN3C(=O)[C@H](CC(C)C)NC1=O)C(=O)N2` [Example 1003] ({CH2CO}-Y[NMeA]NP[Dap](Oleoyl)L[Hyp]W[Dab][Trp(1-CH2CO)][NMeNle][NMeNle]LCG-NH2; lactam 9-10; thioether N-14), the IC50 was above 10000 nM.
With `CCCC[C@H]1C(=O)N(C)[C@@H](CCCC)C(=O)N[C@@H](CC(C)C)C(=O)N[C@H](C(=O)NCC(N)=O)CSCC(=O)N[C@@H](Cc2ccc(O)cc2)C(=O)N(C)[C@@H](C)C(=O)N[C@@H](CC(N)=O)C(=O)N2CCC[C@H]2C(=O)N[C@@H](CNC(=O)OCC2c3ccccc3-c3ccccc32)C(=O)N[C@@H](CC(C)C)C(=O)N2C[C@H](O)C[C@H]2C(=O)N[C@@H](Cc2c[nH]c3ccccc23)C(=O)N[C@H]2CCNC(=O)Cn3cc(c4ccccc43)C[C@H](NC2=O)C(=O)N1C` [Example 1004] ({CH2CO}-Y[NMeA]NP[Dap](Fmoc)L[Hyp]W[Dab][Trp(1-CH2CO)][NMeNle][NMeNle]LCG-NH2; lactam 9-10; thioether N-14), the IC50 came out at 16 nM.
As to `CCCC[C@H]1C(=O)N(C)[C@@H](CCCC)C(=O)N[C@@H](CC(C)C)C(=O)N[C@H](C(=O)NCC(N)=O)CSCC(=O)N[C@@H](Cc2ccc(O)cc2)C(=O)N(C)[C@@H](C)C(=O)N[C@@H](CC(N)=O)C(=O)N2CCC[C@H]2C(=O)N[C@@H](CNC(=O)SC(C)(C)C)C(=O)N[C@@H](CC(C)C)C(=O)N2C[C@H](O)C[C@H]2C(=O)N[C@@H](Cc2c[nH]c3ccccc23)C(=O)N[C@H]2CCNC(=O)Cn3cc(c4ccccc43)C[C@H](NC2=O)C(=O)N1C` [Example 1005] ({CH2CO}-Y[NMeA]NP[Dap](X5)L[Hyp]W[Dab][Trp(1-CH2CO)][NMeNle][NMeNle]LCG-NH2; lactam 9-10; thioether N-14), the IC50 worked out at 0.58 nM.
For `CCCC[C@H]1C(=O)N(C)[C@@H](CCCC)C(=O)N[C@@H](CC(C)C)C(=O)N[C@H](C(=O)NCC(N)=O)CSCC(=O)N[C@@H](Cc2ccc(O)cc2)C(=O)N(C)[C@@H](C)C(=O)N[C@@H](CC(N)=O)C(=O)N2CCC[C@H]2C(=O)N[C@@H](CNc2nc(Cl)nc3ccc(-c4ccccc4C)cc23)C(=O)N[C@@H](CC(C)C)C(=O)N2C[C@H](O)C[C@H]2C(=O)N[C@@H](Cc2c[nH]c3ccccc23)C(=O)N[C@H]2CCCC(=O)Cn3cc(c4ccccc43)C[C@H](NC2=O)C(=O)N1C` [Example 1007], the IC50 stood at 1200 nM.
For the compound `CCCC[C@H]1C(=O)N(C)[C@@H](CCCC)C(=O)N[C@@H](CC(C)C)C(=O)N[C@H](C(=O)NCC(N)=O)CSCC(=O)N[C@@H](Cc2ccc(O)cc2)C(=O)N(C)[C@@H](C)C(=O)N[C@@H](CC(N)=O)C(=O)N2CCC[C@H]2C(=O)N[C@@H](CNc2nc(-c3c(CC)cccc3CC)nc3ccccc23)C(=O)N[C@@H](CC(C)C)C(=O)N2C[C@H](O)C[C@H]2C(=O)N[C@@H](Cc2c[nH]c3ccccc23)C(=O)N[C@H]2CCNC(=O)Cn3cc(c4ccccc43)C[C@H](NC2=O)C(=O)N1C` [Example 1013] ({CH2CO}-Y[NMeA]NP[Dap](X4)L[Hyp]W[Dab][Trp(1-CH2CO)][NMeNle][NMeNle]LCG-NH2; lactam 9-10; thioether N-14), the half-inhibitory concentration (IC50) came out at 41 nM.
As for `CCCC[C@H]1C(=O)N(C)[C@@H](CCCC)C(=O)N[C@@H](CC(C)C)C(=O)N[C@H](C(=O)NCC(N)=O)CSCC(=O)N[C@@H](Cc2ccc(O)cc2)C(=O)N(C)[C@@H](C)C(=O)N[C@@H](CC(N)=O)C(=O)N2CCC[C@H]2C(=O)N[C@@H](CNc2nc(-c3ccccc3)nc3ccc(OC)cc23)C(=O)N[C@@H](CC(C)C)C(=O)N2C[C@H](O)C[C@H]2C(=O)N[C@@H](Cc2c[nH]c3ccccc23)C(=O)N[C@H]2CCNC(=O)Cn3cc(c4ccccc43)C[C@H](NC2=O)C(=O)N1C` [Example 1014] ({CH2CO}-Y[NMeA]NP[Dap](X2)L[Hyp]W[Dab][Trp(1-CH2CO)][NMeNle][NMeNle]LCG-NH2; lactam 9-10; thioether N-14), the figure is 49 nM.
`CCCC[C@H]1C(=O)N(C)[C@@H](CCCC)C(=O)N[C@@H](CC(C)C)C(=O)N[C@H](C(=O)NCC(N)=O)CSCC(=O)N[C@@H](Cc2ccc(O)cc2)C(=O)N(C)[C@@H](C)C(=O)N[C@@H](CC(N)=O)C(=O)N2CCC[C@H]2C(=O)N[C@@H](CNc2ncnc3ccc(Br)cc23)C(=O)N[C@@H](CC(C)C)C(=O)N2C[C@H](O)C[C@H]2C(=O)N[C@@H](Cc2c[nH]c3ccccc23)C(=O)N[C@H]2CCNC(=O)Cn3cc(c4ccccc43)C[C@H](NC2=O)C(=O)N1C` [Example 1015] ({CH2CO}-Y[NMeA]NP[Dap](X3)L[Hyp]W[Dab][Trp(1-CH2CO)][NMeNle][NMeNle]LCG-NH2; lactam 9-10; thioether N-14) yielded an IC50 of 97 nM.
As for `CCCC[C@H]1C(=O)N(C)[C@@H](CCCC)C(=O)N[C@@H](CC(C)C)C(=O)N[C@H](C(=O)NCC(N)=O)CSCC(=O)N[C@@H](Cc2ccc(O)cc2)C(=O)N(C)[C@@H](C)C(=O)N[C@@H](CC(N)=O)C(=O)N2CCC[C@H]2C(=O)N[C@@H](CNc2ncc3ccc(C(=O)OC)cc3n2)C(=O)N[C@@H](CC(C)C)C(=O)N2C[C@H](O)C[C@H]2C(=O)N[C@@H](Cc2c[nH]c3ccccc23)C(=O)N[C@H]2CCNC(=O)Cn3cc(c4ccccc43)C[C@H](NC2=O)C(=O)N1C` [Example 1016] ({CH2CO}-Y[NMeA]NP[Dap](X1)L[Hyp]W[Dab][Trp(1-CH2CO)][NMeNle][NMeNle]LCG-NH2; lactam 9-10; thioether N-14), the figure is 120 nM.

Source of the values: patent publication US20230365628A1, “MACROCYCLIC IMMUNOMODULATORS” (Bristol-Myers Squibb Company, priority 2020, published 2023).
